# Values quoted from earlier work in patent US20150290439A1, “METHODS FOR BILATERAL CENTRAL AUTONOMIC NEUROMODULATION” (priority 2014, published 2015).
# What was measured:
# [1] = reason for discontinuation
# [2] = biological target: calcitonin gene-related peptide receptor (Homo sapiens, UniProt O60894+Q16602)
# [3] = not given; remark: listed apart in the source
# Chain of calcitonin gene-related peptide receptor (Q16602 23-461): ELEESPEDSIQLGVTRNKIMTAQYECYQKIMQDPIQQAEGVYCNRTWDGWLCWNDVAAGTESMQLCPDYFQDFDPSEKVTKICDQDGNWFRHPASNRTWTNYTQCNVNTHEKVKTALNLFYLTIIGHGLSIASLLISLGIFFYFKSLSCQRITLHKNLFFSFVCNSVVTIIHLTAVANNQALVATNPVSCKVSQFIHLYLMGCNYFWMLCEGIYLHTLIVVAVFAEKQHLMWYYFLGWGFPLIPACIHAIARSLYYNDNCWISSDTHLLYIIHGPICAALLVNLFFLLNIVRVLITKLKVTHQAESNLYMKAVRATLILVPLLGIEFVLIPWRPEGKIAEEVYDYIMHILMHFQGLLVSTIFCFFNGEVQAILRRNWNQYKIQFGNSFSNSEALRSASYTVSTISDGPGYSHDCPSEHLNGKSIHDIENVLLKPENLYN
# Chain of calcitonin gene-related peptide receptor (O60894 27-148): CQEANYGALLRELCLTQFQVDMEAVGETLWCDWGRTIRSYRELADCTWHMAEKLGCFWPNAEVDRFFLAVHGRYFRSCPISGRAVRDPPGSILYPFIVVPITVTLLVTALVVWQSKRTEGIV
smiles,measurement,setting,value
Cc1cc(C[C@@H](OC(=O)N2CCC(N3CCc4ccccc4NC3=O)CC2)C(=O)N2CCC(N3CCOCC3)CC2)cc(C)c1O [BI44370A],efficacy in Phase 2 clinical study,,efficacy demonstrated
O=C(CN1C(=O)C2(CCCC2)NC[C@H]1c1cc(F)cc(F)c1)Nc1ccc2c(c1)C[C@@]1(C2)C(=O)Nc2ncccc21 [MK-3207],liver toxicity,[1],concerns of liver toxicity
same,potency relative to telcagepant,[2],significantly more potent than telcagepant
O=C(N[C@@H]1CC[C@@H](c2cccc(F)c2F)CN(CC(F)(F)F)C1=O)N1CCC(n2c(=O)[nH]c3ncccc32)CC1 [Telcagepant],liver toxicity,[1],concerns of liver toxicity after frequent use
N[C@@H]1c2cccnc2[C@H](OC(=O)N2CCC(n3c(=O)[nH]c4ncccc43)CC2)CC[C@H]1c1cccc(F)c1F [BMS-927711],efficacy of the highest tested dose,[3]; 600 mg,no additional benefit over the doses of 75 mg and 150 mg
same,secondary endpoints versus placebo,"[3]; Phase 2b, acute migraine",most (and sometimes all) doses were superior to placebo
same,tolerability,[3]; acute dosing,placebo-like
same,primary efficacy endpoint: proportion of pain-free subjects at 2 hours post dose,"[3]; all doses, compared with sumatriptan, study not powered for direct comparisons",numerically inferior to sumatriptan
same,efficacy as a function of dose,[3]; doses up to 300 mg,increased up to the dose of 75 mg when a plateau effect seemed to have been reached for doses between 75 mg and 300 mg
same,serious adverse events,[3]; in the trial,No serious adverse event was reported
same,photophobia and phonophobia,[3]; most effective doses,significantly improved
same,secondary endpoints versus sumatriptan,[3]; most effective doses,numerically superior to sumatriptan
same,efficacy of a single dose,[3]; single dose,has been demonstrated
